The record followed here is ChEMBL document CHEMBL1201862, “PubChem BioAssay data set” (2004).

Several values for one entry are separate records, joined by “and”; a condition that tells them apart may be missing. Identical values can stand only once.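 Tested at 5 concentrations; 48 h exposure; 96-well plates; endpoints linearly interpolated, else capped at highest concentration. Abbreviation: GI50, concentration required for 50% inhibition of growth.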 Activity calls are given as the source filed them. Rule as the data show it: active = GI50 up to about 1.1 µM and inactive = higher.

Among the test systems are ACHN; SK-OV-3; NCI-H226; HL-60; UACC-62; MDA-N; NCI/ADR-RES; A498; LOX IMVI; DU-145; SF-295; SNB-75; SF-268; OVCAR-3; KM12; RXF 393; TK-10; NCI-H522; MDA-MB-435; SK-MEL-28.
Holding throughout (test): DTP human tumour cell line panel, 48 h

With `COc1cccc(-c2cc(O)c3cc(OC)ccc3n2)c1`, the GI50 in the test on ACHN was 1.74 µM (inactive); in the test with SK-OV-3, 0.208 µM (active); in the test with NCI-H226, 0.396 µM (active); in the test with HL-60 it was 0.0791 µM (active); with UACC-62, 0.182 µM (active); in the test with MDA-N it was 0.047 µM (active). Moreover, the GI50 with NCI/ADR-RES was 0.173 µM (active); with A498, 0.0158 µM (active); in the test on LOX IMVI, 0.439 µM (active); in the test on DU-145, 0.429 µM (active); in the test with SF-295, 0.18 µM (active); in the test on SNB-75, 0.318 µM (active). The concentration for 50% growth inhibition (GI50) is 0.71 µM (active) in the test on SF-268; 0.188 µM (active) with OVCAR-3; 0.396 µM (active) with KM12; 0.199 µM (active) in the test on RXF 393; 0.5 µM (active) with TK-10.
`Cc1c(CCCl)c(Cl)n2c(nc3ccccc32)c1C#N`: the GI50 in the test with ACHN was 0.836 µM (active); with SK-OV-3, 4.9 µM (inactive); with NCI-H226, 1.38 µM (inactive); in the test with HL-60, 0.107 µM (active); in the test with UACC-62, 1.02 µM (active); in the test with NCI-H522, 0.432 µM (active). Also, the GI50 in the test with MDA-N is 0.826 µM (active); with A498, 1.37 µM (inactive); in the test with LOX IMVI it was 0.281 µM (active); with DU-145, 1.69 µM (inactive); with SF-295, 1.31 µM (inactive); in the test on SNB-75, 3.38 µM (inactive). Also, the GI50 in the test with SF-268 is 1.49 µM (inactive); in the test with OVCAR-3, 1.35 µM (inactive); with KM12 it was 1.19 µM (inactive); with RXF 393, 0.787 µM (active); in the test with TK-10, 1.61 µM (inactive); with MDA-MB-435, 0.796 µM (active). In the test on SK-MEL-28, the GI50 is 1.94 µM (inactive).
With `O=c1[nH]nc(-c2ccccc2)n1-n1cnnc1`, the GI50 with ACHN, with SK-OV-3, in the test with NCI-H226, with UACC-62, in the test with NCI-H522 and in the test on MDA-N was > 100 µM (inactive) each time. Also, the GI50 with NCI/ADR-RES, in the test on A498, in the test on LOX IMVI, in the test on SF-295, with SNB-75 and with SF-268 was > 100 µM (inactive) in each case. In addition, the GI50 in the test on OVCAR-3, in the test on KM12, in the test on RXF 393, in the test with TK-10 and in the test with MDA-MB-435 was > 100 µM (inactive) throughout.
Regarding `CN(C)CCNC(=O)c1cccc2c1Oc1c(cccc1[N+](=O)[O-])O2`, the GI50 was 0.335 µM (active) with ACHN; 0.288 µM (active) in the test with NCI-H226; 0.306 µM (active) in the test with HL-60; 0.419 µM (active) in the test on UACC-62; 0.975 µM (active) in the test with NCI-H522; 2.78 µM (inactive) with MDA-N. In addition, the GI50 in the test on A498 is 1.37 µM (inactive); in the test on LOX IMVI, 0.908 µM (active); in the test on DU-145 it was 0.57 µM (active); in the test with SF-295, 0.548 µM (active); with SNB-75, 1.24 µM (inactive); in the test on SF-268 it was 2.97 µM (inactive). In addition, the GI50 in the test on OVCAR-3 is 2.69 µM (inactive); in the test on KM12, 1.26 µM (inactive); in the test with RXF 393, 2.08 µM (inactive); in the test with TK-10 it was 1.69 µM (inactive); in the test on MDA-MB-435, 3.44 µM (inactive); in the test with SK-MEL-28 it was 2.02 µM (inactive).
Take `CNc1ncnc2c1cnn2CCCCO`: the GI50 in the test on ACHN, with SK-OV-3, in the test with NCI-H226, in the test on HL-60, in the test with UACC-62 and in the test with NCI-H522 was > 100 µM (inactive) throughout. The GI50 in the test on MDA-N, in the test with A498, in the test with LOX IMVI, with DU-145, with SF-295 and with SF-268 was > 100 µM (inactive) in each case. For the same compound, the GI50 with OVCAR-3, with RXF 393, in the test on TK-10, in the test on MDA-MB-435 and with SK-MEL-28 was > 100 µM (inactive) throughout.
As to `COC(=O)/C=C\n1c(C)cc(=O)[nH]c1=O`, the GI50 with ACHN was > 100 µM (inactive); with SK-OV-3 it was 67.5 µM (inactive); in the test with NCI-H226, > 100 µM (inactive); in the test on UACC-62, > 100 µM (inactive); in the test on NCI-H522, > 100 µM (inactive); with MDA-N, > 100 µM (inactive). Also, the GI50 in the test with NCI/ADR-RES is > 100 µM (inactive); with A498, > 100 µM (inactive); in the test with SF-295, > 100 µM (inactive); in the test with SNB-75, 58.2 µM (inactive); in the test with SF-268, > 100 µM (inactive); in the test with OVCAR-3, > 100 µM (inactive). Besides, the GI50 in the test on KM12, with RXF 393, with TK-10, in the test with MDA-MB-435 and in the test with SK-MEL-28 was > 100 µM (inactive) throughout.
On to `C=C1C(O)C23CCC4C(C(=O)O)(C(=O)O)CC(OC5OC(CO)C(O)C(OC(=O)CCc6ccccc6)C5NC(=O)CC(C)C)CC4(C)C2CCC1(O)C3` (configuration not stated), for which the GI50 with ACHN, in the test with SK-OV-3, in the test with NCI-H226, in the test on HL-60, in the test on UACC-62 and with NCI-H522 was > 100 µM (inactive) each time. In addition, the GI50 in the test on MDA-N, in the test on A498, in the test with LOX IMVI, in the test on DU-145, with SF-295 and in the test on SNB-75 was > 100 µM (inactive) throughout. Moreover, the GI50 with SF-268, with OVCAR-3, in the test with KM12, with RXF 393, in the test on TK-10 and with MDA-MB-435 was > 100 µM (inactive) in each case. For the same compound, the GI50 in the test with SK-MEL-28 was > 100 µM (inactive).
Turning to `Cc1ccc2nc3ccccc3c(C3C4C(=O)N(c5ccc(Br)cc5Cl)C(=O)C4ON3C(C(N)=O)c3ccccc3)c2c1` (configuration not stated), the GI50 in the test on ACHN was 6.73 µM (inactive); in the test with SK-OV-3, > 25 µM (inactive); with NCI-H226 it was 17.2 µM (inactive); in the test with HL-60, > 25 µM (inactive); in the test on UACC-62 it was 7.93 µM (inactive); in the test on NCI-H522, 13.6 µM (inactive). Further, the GI50 in the test with MDA-N is 6.9 µM (inactive); in the test on A498, > 25 µM (inactive); in the test on LOX IMVI, 22.8 µM (inactive); with DU-145, > 25 µM (inactive); in the test on SF-295, > 25 µM (inactive); with SNB-75, > 25 µM (inactive). Also, the GI50 in the test on SF-268 is > 25 µM (inactive); in the test on OVCAR-3 it was > 25 µM (inactive); with KM12, > 25 µM (inactive); in the test on RXF 393, 13.3 µM (inactive); in the test on TK-10, > 25 µM (inactive); with MDA-MB-435, 11.1 µM (inactive). In the test on SK-MEL-28, the GI50 was > 25 µM (inactive).
For the compound `COC1OC(COC(=O)NCCCCC(=O)C(F)(F)C(F)(F)C(F)(F)C(F)(F)C(F)(F)C(F)(F)C(F)(F)F)C(O)C(O)C1O` (configuration not stated), the GI50 with ACHN is 15.6 µM (inactive) and 16.4 µM (inactive); in the test with SK-OV-3 it was 14.2 µM (inactive) and 15.8 µM (inactive); in the test with UACC-62, 13.7 µM (inactive) and 14.4 µM (inactive); in the test on MDA-N it was 24 µM (inactive) and 26.4 µM (inactive); in the test with NCI/ADR-RES, 34.5 µM (inactive) and 28.4 µM (inactive); with LOX IMVI it was 14.2 µM (inactive) and 15.9 µM (inactive). The GI50 in the test on SF-295 is 20.7 µM (inactive) and 19.5 µM (inactive); in the test with SNB-75, 14.4 µM (inactive) and 15.8 µM (inactive); in the test on SF-268, 15.7 µM (inactive) and 18.2 µM (inactive); with OVCAR-3 it was 15.5 µM (inactive) and 14.9 µM (inactive); in the test with KM12, 17.5 µM (inactive) and 18.7 µM (inactive); with RXF 393, 13.6 µM (inactive) and 15.1 µM (inactive). For the same compound, the GI50 was 16.9 µM (inactive) and 16.4 µM (inactive) with TK-10; 15.8 µM (inactive) and 16.6 µM (inactive) in the test with MDA-MB-435; 17.3 µM (inactive) and 16.7 µM (inactive) in the test with SK-MEL-28.
For `C[C@@H]1CC[C@@H](C)[C@](C)(CCc2ccoc2)C/C=C\C=C/1C(=O)O`, the GI50 with ACHN was > 50 µM (inactive); in the test on SK-OV-3, > 50 µM (inactive); in the test on NCI-H226, > 50 µM (inactive); in the test on HL-60, 15.3 µM (inactive); in the test on UACC-62, > 50 µM (inactive); in the test on MDA-N, > 50 µM (inactive). Besides, the GI50 in the test with NCI/ADR-RES, in the test on A498, in the test with LOX IMVI, in the test on SF-295, in the test with SNB-75 and in the test on OVCAR-3 was > 50 µM (inactive) each time. For the same compound, the GI50 in the test on KM12, in the test on RXF 393, in the test on TK-10 and in the test on SK-MEL-28 was > 50 µM (inactive) in each case.
In the case of `COc1ccc(C[C@@H](C(=O)O[C@H](C)[C@H](NC(=O)[C@@H](CC(C)C)N(C)C(=O)C2CCCN2C(=O)[C@H](C)O)C(=O)N2CCCCNC(=O)[C@@H](C)C(=O)[C@H](C(C)C)OC(=O)C[C@H](O)[C@H]2CC(C)C)N(C)C(C)=O)cc1` (some centres not stated), the GI50 is 12.6 µM (inactive) in the test on ACHN; 16.1 µM (inactive) with SK-OV-3; 11.7 µM (inactive) with NCI-H226; 10.9 µM (inactive) in the test with HL-60; 3.71 µM (inactive) in the test on UACC-62; 9.25 µM (inactive) in the test with NCI-H522. Besides, the GI50 in the test with NCI/ADR-RES is 21.3 µM (inactive); in the test with A498, 14.3 µM (inactive); with DU-145, 11.4 µM (inactive); with SF-295 it was 10.1 µM (inactive); in the test on SNB-75, 9.84 µM (inactive); with SF-268 it was 17.8 µM (inactive). Besides, the GI50 with OVCAR-3 was 14 µM (inactive); in the test with KM12, 4.89 µM (inactive); in the test with RXF 393 it was 5.2 µM (inactive); with TK-10, 38.5 µM (inactive); in the test on MDA-MB-435, 16.7 µM (inactive); in the test with SK-MEL-28, 4.13 µM (inactive).
